Source: US7772241B2, “Variolin derivatives and their use as antitumor agents” (Pharma Mar S.A., priority 2001, dated 2010)
Where two headings read alike, the source gives them in different places. Each block holds one compound with its values, some of them ahead of it.

Key:
HeLa = assay: Inhibition of cells growth by colorimetric (SRB) assay, HeLa
Excerpt: (§1) The finality of these assays is to interrupt the growth of a “in vitro” tumor cell culture by means a continued exhibition of the cells to the sample to be testing.
(§2) This form of the assay employs 96 well cell culture microplates of 9 mm diameter (Faircloth, 1988; Mosmann, 1983). Most of the cell lines are obtained from American Type Culture Collection (ATCC) derived from different human cancer types.
(§3) Cells are maintained in RPMI 1640 10% FBS, supplemented with 0.1 g/l penicillin and 0.1 g/l streptomycin sulphate and then incubated at 37° C., 5% CO2 and 98% humidity. For the experiments, cells were harvested from subconfluent cultures using trypsin and resuspended in fresh medium before plating.
(§4) Cells are seeded in 96 well microtiter plates, at 5×10^3 cells per well in aliquots of 195 μl medium, and they are allowed to attach to the plate surface by growing in drug free medium for 18 hours. Afterward, samples are added in aliquots of 5 μl in a ranging from 10 to 10^−8 μg/ml, dissolved in DMSO/EtOH/PBS (0.5:0.5:99). After 48 hours exposure, the antitumor effect are measured by the SRB methodology: cells are fixed by adding 50 μl of cold 50% (wt/vol) trichloroacetic acid (TCA) and incubating for 60 minutes at 4° C. Plates are washed with deionized water and dried. One hundred μl of SRB solution (0.4% wt/vol in 1% acetic acid) is added to each microtiter well and incubated for 10 minutes at room temperature. Unbound SRB is removed by washing with 1% acetic acid. Plates are air dried and bound stain is solubilized with Tris buffer. Optical densities are read on a automated spectrophotometric plate reader at a single wavelength of 490 nm.
(§5) The values for mean +/−SD of data from triplicate wells are calculated. Some parameters for cellular responses can be calculated: GI=growth inhibition, TGI=total growth inhibition (cytostatic effect) and LC=cell killing (cytotoxic effect).

PANC-1 = assay: Inhibition of cells growth by colorimetric (SRB) assay, PANC-1; conditions: for CC50: read-out: PANC-1 LC50, SRB assay, 48 hours exposure
How it was run: (§6)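 Human tumour cells in RPMI 1640 with 10% FBS were seeded at 5×10^3 cells/well, allowed to attach for 18 h, then exposed to samples at 10 to 10^−8 μg/ml for 48 h. Growth was measured by SRB staining after TCA fixation, with absorbance read at 490 nm in triplicate wells.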

IGROV-1 = assay: Inhibition of cells growth by colorimetric (SRB) assay, IGROV-1; conditions: for CC50: read-out: IGROV LC50, SRB assay, 48 hours exposure
How it was run: as §6

SK-BR-3 = assay: Inhibition of cells growth by colorimetric (SRB) assay, SK-BR-3; conditions: for GI50 / CC50: Homo sapiens, SK-BR-3, 48 h; for GI50: read-out: SK-BR-3 GI50, SRB assay, 48 hours exposure; for CC50: read-out: SK-BR-3 LC50, SRB assay, 48 hours exposure; for SK-BR-3 TGI: SRB assay, 48 hours exposure
How it was run: as §6

LoVo = assay: Inhibition of cells growth by colorimetric (SRB) assay, LoVo; conditions: for CC50: read-out: LOVO LC50, SRB assay, 48 hours exposure
How it was run: as §6

A-549 = assay: Inhibition of cells growth by colorimetric (SRB) assay, A-549; conditions: for CC50: read-out: A-549 LC50, SRB assay, 48 hours exposure
How it was run: as §6

LNCaP = assay: Inhibition of cells growth by colorimetric (SRB) assay, LNCaP
How it was run: as §6

DU-145 = assay: Inhibition of cells growth by colorimetric (SRB) assay, DU-145
How it was run: as §6

LoVo-Dox = assay: Inhibition of cells growth by colorimetric (SRB) assay, LoVo-Dox; conditions: for CC50: read-out: LOVO-DOX LC50, SRB assay, 48 hours exposure
How it was run: as §6

HT-29 = assay: Inhibition of cells growth by colorimetric (SRB) assay, HT-29; conditions: for CC50: read-out: HT-29 LC50, SRB assay, 48 hours exposure
How it was run: as §6

IGROV-ET = assay: Inhibition of cells growth by colorimetric (SRB) assay, IGROV-ET; conditions: for CC50: read-out: IGROV-ET LC50, SRB assay, 48 hours exposure
How it was run: as §6

SK-MEL-28 = assay: Inhibition of cells growth by colorimetric (SRB) assay, SK-MEL-28; conditions: for CC50: read-out: MEL-28 LC50, SRB assay, 48 hours exposure
How it was run: as §6

HeLa-APL = assay: Inhibition of cells growth by colorimetric (SRB) assay, HeLa-APL
Excerpt: as §1, §2, §3, §4, §5

K-562 = assay: Inhibition of cells growth by colorimetric (SRB) assay, K-562; conditions: for CC50: read-out: K-562 LC50, SRB assay, 48 hours exposure
How it was run: as §6

GI50 (HeLa; Homo sapiens, HeLa, 48 h, read-out: HELA GI50, SRB assay, 48 hours exposure): 2.52 nM
GI50 (PANC-1; Homo sapiens, PANC-1, 48 h, read-out: PANC-1 GI50, SRB assay, 48 hours exposure): 220 nM
GI50 (SK-BR-3): 326 nM
GI50 (LoVo; Homo sapiens, LoVo, 48 h, read-out: LOVO GI50, SRB assay, 48 hours exposure): 984 nM
GI50 (A-549; Homo sapiens, A549, 48 h, read-out: A-549 GI50, SRB assay, 48 hours exposure): 249 nM
GI50 (LNCaP; Homo sapiens, LNCaP, 48 h, read-out: LN-caP GI50, SRB assay, 48 hours exposure): 127 nM
GI50 (DU-145; Homo sapiens, DU-145, 48 h, read-out: DU-145 GI50, SRB assay, 48 hours exposure): 64.6 nM
GI50 (LoVo-Dox; Homo sapiens, 48 h, read-out: LOVO-DOX GI50, SRB assay, 48 hours exposure): 699 nM
GI50 (HT-29; Homo sapiens, HT-29, 48 h, read-out: HT-29 GI50, SRB assay, 48 hours exposure): 176 nM
GI50 (SK-MEL-28; Homo sapiens, SK-MEL-28, 48 h, read-out: MEL-28 GI50, SRB assay, 48 hours exposure): 767 nM
GI50 (HeLa-APL; Homo sapiens, 48 h, read-out: HELA-APL GI50, SRB assay, 48 hours exposure): 4.67 nM
GI50 (K-562; Homo sapiens, K562, 48 h, read-out: K-562 GI50, SRB assay, 48 hours exposure): 898 nM
SMILES: CSc1nccc(-c2c3c(N)ccnc3n3c(N)nccc23)n1.Cl [Compound 93]
HELA TGI (HeLa; SRB assay, 48 hours exposure): 5.10E−09
CC50 (PANC-1; Homo sapiens, PANC-1, 48 h): 25200 nM
PANC-1 TGI (PANC-1; SRB assay, 48 hours exposure): 2.78E−06
GI50 (IGROV-1; Homo sapiens, IGROV-1, 48 h, read-out: IGROV GI50, SRB assay, 48 hours exposure): 144 nM
CC50 (IGROV-1; Homo sapiens, IGROV-1, 48 h): 25200 nM
IGROV TGI (IGROV-1; SRB assay, 48 hours exposure): 8.76E−07
CC50 (SK-BR-3): 15600 nM
SK-BR-3 TGI (SK-BR-3): 1.59E−06
CC50 (LoVo; Homo sapiens, LoVo, 48 h): 17400 nM
LOVO TGI (LoVo; SRB assay, 48 hours exposure): 3.84E−06
CC50 (A-549; Homo sapiens, A549, 48 h): 5980 nM
A-549 TGI (A-549; SRB assay, 48 hours exposure): 9.34E−07
CC50 (LNCaP; Homo sapiens, LNCaP, 48 h, read-out: LN-caP LC50, SRB assay, 48 hours exposure): 1670 nM
LN-caP TGI (LNCaP; SRB assay, 48 hours exposure): 3.68E−07
CC50 (DU-145; Homo sapiens, DU-145, 48 h, read-out: DU-145 LC50, SRB assay, 48 hours exposure): 2330 nM
DU-145 TGI (DU-145; SRB assay, 48 hours exposure): 4.16E−07
CC50 (LoVo-Dox; Homo sapiens, 48 h): 25200 nM
LOVO-DOX TGI (LoVo-Dox; SRB assay, 48 hours exposure): 1.68E−06
CC50 (HT-29; Homo sapiens, HT-29, 48 h): 25200 nM
HT-29 TGI (HT-29; SRB assay, 48 hours exposure): 1.32E−06
GI50 (IGROV-ET; Homo sapiens, 48 h, read-out: IGROV-ET GI50, SRB assay, 48 hours exposure): 860 nM
CC50 (IGROV-ET; Homo sapiens, 48 h): 2520 nM
IGROV-ET TGI (IGROV-ET; SRB assay, 48 hours exposure): 2.09E−06
CC50 (SK-MEL-28; Homo sapiens, SK-MEL-28, 48 h): 10700 nM
MEL-28 TGI (SK-MEL-28; SRB assay, 48 hours exposure): 3.71E−06
CC50 (HeLa-APL; Homo sapiens, 48 h, read-out: HELA-APL LC50, SRB assay, 48 hours exposure): 29 nM
HELA-APL TGI (HeLa-APL; SRB assay, 48 hours exposure): 6.03E−09
CC50 (K-562; Homo sapiens, K562, 48 h): 25200 nM
K-562 TGI (K-562; SRB assay, 48 hours exposure): 1.57E−06

GI50 (HeLa; read-out: HELA GI50, SRB assay, 48 hours exposure): 57.6 nM
GI50 (PANC-1; read-out: PANC-1 GI50, SRB assay, 48 hours exposure): 4050 nM
GI50 (SK-BR-3): 1920 nM
GI50 (LoVo; read-out: LOVO GI50, SRB assay, 48 hours exposure): 5070 nM
GI50 (A-549; read-out: A-549 GI50, SRB assay, 48 hours exposure): 707 nM
GI50 (LNCaP; read-out: LN-caP GI50, SRB assay, 48 hours exposure): 109 nM
GI50 (DU-145; read-out: DU-145 GI50, SRB assay, 48 hours exposure): 257 nM
GI50 (LoVo-Dox; read-out: LOVO-DOX GI50, SRB assay, 48 hours exposure): 7510 nM
GI50 (HT-29; read-out: HT-29 GI50, SRB assay, 48 hours exposure): 457 nM
GI50 (SK-MEL-28; read-out: MEL-28 GI50, SRB assay, 48 hours exposure): 3080 nM
GI50 (HeLa-APL; read-out: HELA-APL GI50, SRB assay, 48 hours exposure): 78.7 nM
GI50 (K-562; read-out: K-562 GI50, SRB assay, 48 hours exposure): 2850 nM
SMILES: CSc1nccc(-c2c3c(O)ccnc3n3c(N)nccc23)n1.Cl [Compound 97]
HELA TGI (HeLa; SRB assay, 48 hours exposure): 1.28E−07
CC50 (PANC-1; Homo sapiens, PANC-1, 48 h): 24600 nM
PANC-1 TGI (PANC-1; SRB assay, 48 hours exposure): 9.98E−06
CC50 (IGROV-1; Homo sapiens, IGROV-1, 48 h): 27000 nM
IGROV TGI (IGROV-1; SRB assay, 48 hours exposure): 3.10E−06
GI50 (IGROV-1; read-out: IGROV GI50, SRB assay, 48 hours exposure): 93.1 nM
CC50 (SK-BR-3): 23600 nM
SK-BR-3 TGI (SK-BR-3): 7.37E−06
CC50 (LoVo; Homo sapiens, LoVo, 48 h): 27700 nM
LOVO TGI (LoVo; SRB assay, 48 hours exposure): 1.27E−05
CC50 (A-549; Homo sapiens, A549, 48 h): 22300 nM
A-549 TGI (A-549; SRB assay, 48 hours exposure): 4.55E−06
LN-caP TGI (LNCaP; SRB assay, 48 hours exposure): 2.88E−07
CC50 (LNCaP; read-out: LN-caP LC50, SRB assay, 48 hours exposure): 5820 nM
DU-145 TGI (DU-145; SRB assay, 48 hours exposure): 3.19E−06
CC50 (DU-145; read-out: DU-145 LC50, SRB assay, 48 hours exposure): 12800 nM
CC50 (LoVo-Dox; Homo sapiens, 48 h): 27700 nM
LOVO-DOX TGI (LoVo-Dox; SRB assay, 48 hours exposure): 1.93E−05
CC50 (HT-29; Homo sapiens, HT-29, 48 h): 18700 nM
HT-29 TGI (HT-29; SRB assay, 48 hours exposure): 4.85E−06
CC50 (IGROV-ET; Homo sapiens, 48 h): 27700 nM
IGROV-ET TGI (IGROV-ET; SRB assay, 48 hours exposure): 8.12E−06
GI50 (IGROV-ET; read-out: IGROV-ET GI50, SRB assay, 48 hours exposure): 1520 nM
CC50 (SK-MEL-28; Homo sapiens, SK-MEL-28, 48 h): 18000 nM
MEL-28 TGI (SK-MEL-28; SRB assay, 48 hours exposure): 7.43E−06
HELA-APL TGI (HeLa-APL; SRB assay, 48 hours exposure): 1.77E−07
CC50 (HeLa-APL; read-out: HELA-APL LC50, SRB assay, 48 hours exposure): 1850 nM
CC50 (K-562; Homo sapiens, K562, 48 h): 24400 nM
K-562 TGI (K-562; SRB assay, 48 hours exposure): 8.34E−06
